Earlier results in patent EP4398053A1, “CONTROL METHOD FOR […] OF A DYNAMIC SYSTEM AND […]” (Universidade de Aveiro, priority 2023, dated 2024).

Conditions: drug elimination within the body; drug-specific model parameter

O=P1(N(CCCl)CCCl)NCCCO1 (stereo not shown) [Cyclophosphamide]
drug elimination rate λ: 4.16 day⁻¹
